In patent EP3193856B1, “FORMULATION” (Pharmaq AS, priority 2014, dated 2016):
Values after ≈ are worked out from the molar mass of the structure shown. Like-named read-outs stand apart in the source and are kept apart here.

Assays:
Atlantic salmon [1] = test: Safety of formulations based on different solvents after intraperitoneal injection; type: in vivo; details: i.p. 0.2 ml; 37.8 g, freshwater 17°C; 3 week period
Protocol: Atlantic salmon (average size: 37.8 g) kept in freshwater (17°C) were divided into 11 groups of 5 or 25 fish per group. Mortality was then logged over a 3 week period. […]

[2] = Maximum solubility of hexaflumuron in PEG/DMSO/CA as a function of PEG molecular weight (Figure 6); type: physicochemical; details: PEG600/DMSO/CA mixture, organic solvent or mixture, thermodynamic from solid; formulation with 85% by weight PEG600 and 15% by weight DMSO
Protocol: An experiment was performed in order to investigate the solubility of parasiticide (hexaflumuron) in a formulation comprising PEG (85 mass%), DMSO (15 mass%), and CA (0.3 volume %) as a function of PEG molecular weight. Increasing amounts of hexaflumuron were dissolved in different mixtures of PEG/DMSO/CA (85/15/0.3) with PEG molecular weights ranging from 200 to 600.

[3] = Solubility of hexaflumuron, solvent added gradually until complete dissolution; type: physicochemical; details: for solubility: thermodynamic from solid
Protocol: In order to produce a formulation in which hexaflumuron was present in stable solution, the solubility of hexaflumuron in various other solvents was investigated. Solubility was determined by adding each solvent gradually to a specific mass of hexaflumuron until complete dissolution was observed.

Lepeophtheirus salmonis = test: Sea lice challenge of treated Atlantic salmon; type: in vivo; details: for Mean number of lice per fish Treated group: chalimus stage counted 2 weeks post challenge, n=10; for Relative effect of treatment: versus untreated group
Protocol: Atlantic salmon (total n=180) were kept in full seawater (3.5% salinity, 12°C). Half of the population (n=90) were treated with parasiticide (in this case hexaflumuron) on day 0. Treated and untreated fish (n=10 per group) were randomly collected from each group and challenged with copepodids of Lepeophtheirus salmonis in a common challenge tank during a 12 weeks period. This was done six times after treatments, in weeks 1, 3, 6, 8, 10 and 12 post treatment. The number of lice reaching chalimus stage was registered on each fish 2 weeks post challenge. Concentration of hexaflumuron in a portion of muscle with skin was also measured in each fish at the time of lice count.

[4] = cited from earlier work
salmonids = details: Benville et al 1968; cited from earlier work
Atlantic salmon [5] = details: in vivo, ip, 3 months
Protocol: To investigate the toxicity of the polar solvent further, formulations comprising different amounts of DMSO were prepared as detailed in Table 4. The formulations were intraperitoneally injected in a single dose into Atlantic salmon (19 - 38 g) kept in freshwater (8 - 17 °C). The eventual toxicity induced by each formulation was assessed by continuous registration of mortality up until 3 months post injection, and is shown in Table 4.
Therefore, it was extremely surprising to find that doses as low as about 1 g/kg cause mortality in Atlantic salmon.

In the case of `COCC(C)O` (stereo not shown) [1-methoxy-2-propanol], the “% Mortality” value (Atlantic salmon [1]) is reported as 100%.
For `O=C(NC(=O)c1c(F)cccc1F)Nc1cc(Cl)c(OC(F)(F)C(F)F)c(Cl)c1` [Hexaflumuron], the solubility [2] was ~130 mg/mL (≈ 282 mM), the solubility ([3]; oil or lipid, solvent: Isopropyl myristate) was < 1 mg/mL and the solubility ([3]; oil or lipid, solvent: Paraffin Light Liquid) was < 0.1 mg/mL. For the same molecule, the solubility ([3]; organic solvent or mixture, solvent: Acetone) was > 130 mg/mL, the solubility ([3]; organic solvent or mixture, solvent: DMA) was > 300 mg/mL and the solubility ([3]; organic solvent or mixture, solvent: DMF) was > 300 mg/mL. The solubility ([3]; organic solvent or mixture, solvent: DMSO) was > 300 mg/mL, the solubility ([3]; organic solvent or mixture, solvent: Ethyl acetate) was > 75 mg/mL and the solubility ([3]; organic solvent or mixture, solvent: NMP) was > 300 mg/mL. For the same molecule, the solubility ([3]; organic solvent or mixture, solvent: Propylene glycol (PG)) was < 0.5 mg/mL, the solubility ([3]; organic solvent or mixture, solvent: Tetraglycol) was > 75 mg/mL and the solubility ([3]; organic solvent or mixture, solvent: n-heptane) was < 0.5 mg/mL. The “Hexaflumuron Solubility” value ([3]; solvent: DMSO) was >300 mg/mL, the “Mean number of lice per fish Treated group” value (Lepeophtheirus salmonis; challenged week 1 post treatment, Atlantic salmon, seawater 12°C) was 0 and the “Mean number of lice per fish Treated group” value (Lepeophtheirus salmonis; challenged week 3 post treatment) was 0. The “Mean number of lice per fish Treated group” value (Lepeophtheirus salmonis; challenged week 6 post treatment) was 0, the “Mean number of lice per fish Treated group” value (Lepeophtheirus salmonis; challenged week 8 post treatment) was 0.2 and the “Mean number of lice per fish Treated group” value (Lepeophtheirus salmonis; challenged week 10 post treatment) was 1.7. The “Mean number of lice per fish Treated group” value (Lepeophtheirus salmonis; challenged week 12 post treatment) was 27.6, the “Relative effect of treatment” value (Lepeophtheirus salmonis; week 1 post treatment) was 100% and the “Relative effect of treatment” value (Lepeophtheirus salmonis; week 3 post treatment) was 100%. For the same molecule, the “Relative effect of treatment” value (Lepeophtheirus salmonis; week 6 post treatment) was 100%, the “Relative effect of treatment” value (Lepeophtheirus salmonis; week 8 post treatment) was 98% and the “Relative effect of treatment” value (Lepeophtheirus salmonis; week 10 post treatment) was 69%. The “Relative effect of treatment” value (Lepeophtheirus salmonis; week 12 post treatment) was 47%, the “Hexaflumuron Solubility” value ([4]; solvent: Methanol) was 11300 µg/mL and the “Hexaflumuron Solubility” value ([4]; solvent: Water) was 0.027 µg/mL. The “Hexaflumuron Solubility” value ([4]; solvent: Water, listed as hexaflumuron) was “about 2.7 x 10^-5 mg/ml” and the “Hexaflumuron Solubility” value ([4]; solvent: Xylene) was 5200 µg/mL.
In the case of `C[S+](C)[O-]` [DMSO, Dimethyl sulfoxide], the LD50 (salmonids) is given as 12000 to 17000 mg/kg, the “dose reported not to give any mortality” value (salmonids) is given as 7050 mg/kg and the “doses at which DMSO was found to be toxic” value (Atlantic salmon [5]) is given as > 1000 mg/kg.
With Glycofurol the “% Mortality” value (Atlantic salmon [1]) was 100%.
With `CN1CCCC1=O` [NMP, n-methyl-2-pyrrolidone] the “% Mortality” value (Atlantic salmon [1]) was 100%.
With `CC(O)CO` (stereo not shown) [PG, propylene glycol] the “% Mortality” value (Atlantic salmon [1]) was 0%.
With `CCOC(C)=O` [Ethyl acetate] the “% Mortality” value (Atlantic salmon [1]) was 100%.
